Source: patent US9630965B2, “Fused amino pyridine as HSP90 inhibitors” (Curis, Inc., priority 2007, dated 2017)

Columns and labels:
HSP90 [1] = molecular target: T1, HSP90 (Homo sapiens (Human), UniProt P07900); assay: Hsp90 chaperone assay (refolding of heat-denatured luciferase); assay type: biochemical
Procedure: (a) An In Vitro Assay which Determines the Ability of a Test Compound to Inhibit Hsp90 Chaperone Activity.
The Hsp90 chaperone assay was performed to measure the ability of HSP90 protein to refold the heat-denatured luciferase protein. HSP90 was first incubated with different concentrations of test compounds in denaturation buffer (25 mM Tris, pH7.5, 8 mM MgSO4, 0.01% bovine gamma globulin and 10% glycerol) at room temperature for 30 min. Luciferase protein was added to denaturation mix and incubated at 50° C. for 8 min. The final concentration of HSP90 and luciferase in denaturation mixture were 0.375 μM and 0.125 μM respectively. A 5 μl sample of the denatured mix was diluted into 25 μl of renaturation buffer (25 mM Tris, pH7.5, 8 mM MgSO4, 0.01% bovine gamma globulin and 10% glycerol, 0.5 mM ATP, 2 mM DTT, 5 mM KCl, 0.3 μM HSP70 and 0.15 μM HSP40). The renaturation reaction was incubated at room temperature for 150 min, followed by dilution of 10 μl of the renatured sample into 90 μl of luciferin reagent (Luclite, PerkinElmer Life Science). The mixture was incubated at dark for 5 min before reading the luminescence signal on a TopCount plate reader (PerkinElmer Life Science).

HSP90 [2] = molecular target: T1, HSP90; assay: HSP90 competition binding (fluorescence polarization) assay with FITC labeled GM; conditions: 24 hours of incubation at 4° C.
Source text: (b) HSP90 Competition Binding (Fluorescence Polarization) Assay.
A fluorescein isothiocyanate (FITC) labeled GM was purchase from InvivoGen (ant-fgl-1). The interaction between HSP90 and labeled GM forms the basis for the fluorescence polarization assay. A free and fast-tumbling FITC labeled GM emits random light with respect to the plane of polarization plane of excited light, resulting in a lower polarization degree (mP) value. When GM is bound to HSP90, the complex tumble slower and the emitted light is polarized, resulting in a higher mP value. […] The assay buffer contained 20 mM HEPES (pH 7.3), 50 mM KCl, 1 mM DTT, 50 mM MgCl2, 20 mM Na2MoO4, 0.01% NP40 with 0.1 mg/ml bovine gamma-globulin.

| Structure (SMILES) | IC50 (HSP90 [1]) [nM] | IC50 (HSP90 [2]) [nM] |
| --- | --- | --- |
| C#CCCCn1c(Sc2cc3c(cc2Cl)OCO3)nc2c(N)nccc21 [Compound 2, 2-(6-chlorobenzo[d][1,3]dioxol-5-ylthio)-1-(pent-4-ynyl)-1H-imidazo[4,5-c]pyridin-4-amine] | 100 to 1000 | 100 to 1000 |
| C#CCCCn1c(Sc2cccc(OC)c2)nc2c(N)nccc21 [Compound 11, 2-(3-methoxyphenylthio)-1-(pent-4-ynyl)-1H-imidazo[4,5-c]pyridin-4-amine] | ≥ 10000 | > 10000 |
| C#CCCCn1c(Sc2cc(OC)ccc2I)nc2c(N)nccc21 [Compound 12, 2-(2-iodo-5-methoxyphenylthio)-1-(pent-4-ynyl)-1H-imidazo[4,5-c]pyridin-4-amine] | 1000 to 10000 | 100 to 1000 |
| C#CCCCn1c(Sc2cc(OC)ccc2Br)nc2c(N)nccc21 [Compound 13, 2-(2-bromo-5-methoxyphenylthio)-1-(pent-4-ynyl)-1H-imidazo[4,5-c]pyridin-4-amine] | 1000 to 10000 | 1000 to 10000 |
| C#CCCCn1c(Sc2cc(OC)ccc2Cl)nc2c(N)nccc21 [Compound 14, 2-(2-chloro-5-methoxyphenylthio)-1-(pent-4-ynyl)-1H-imidazo[4,5-c]pyridin-4-amine] | 1000 to 10000 | 1000 to 10000 |
| C#CCCCn1c(Sc2cc(OC)ccc2[N+](=O)[O-])nc2c(N)nccc21 [Compound 17, 2-(5-methoxy-2-nitrophenylthio)-1-(pent-4-ynyl)-1H-imidazo[4,5-c]pyridin-4-amine] | ≥ 10000 | > 10000 |
| C#CCCCn1c(Sc2cc(OC)ccc2C(C)=O)nc2c(N)nccc21 [Compound 19, 1-(2-(4-amino-1-(pent-4-ynyl)-1H-imidazo[4,5-c]pyridin-2-ylthio)-4-methoxyphenyl)ethanone] | 1000 to 10000 | 1000 to 10000 |
| CC(C)NCCCn1c(Sc2cc3c(cc2I)OCO3)nc2c(N)nccc21 [Compound 52, 2-(6-iodobenzo[d][1,3]dioxol-5-ylthio)-1-(3-(isopropylamino)propyl)-1H-imidazo[4,5-c]pyridin-4-amine] |  | 100 to 1000 |
| COc1ccc(Br)c(Sc2nc3c(N)nccc3n2CCCNC(C)C)c1 [Compound 53, 2-(2-bromo-5-methoxyphenylthio)-1-(3-(isopropylamino)propyl)-1H-imidazo[4,5-c]pyridin-4-amine] |  | 1000 to 10000 |
| COc1ccc(I)c(Sc2nc3c(N)nccc3n2CCCNC(C)C)c1 [Compound 54, 2-(2-iodo-5-methoxyphenylthio)-1-(3-(isopropylamino)propyl)-1H-imidazo[4,5-c]pyridin-4-amine] |  | 1000 to 10000 |
| CC(C)(C)NCCCn1c(Sc2cc3c(cc2I)OCO3)nc2c(N)nccc21 [Compound 58, 1-(3-(tert-butylamino)propyl)-2-(6-iodobenzo[d][1,3]dioxol-5-ylthio)-1H-imidazo[4,5-c]pyridin-4-amine] |  | 100 to 1000 |
| CCC(CC)NCCCn1c(Sc2cc3c(cc2I)OCO3)nc2c(N)nccc21 [Compound 60, 2-(6-iodobenzo[d][1,3]dioxol-5-ylthio)-1-(3-(pentan-3-ylamino)propyl)-1H-imidazo[4,5-c]pyridin-4-amine] |  | 100 to 1000 |
| CC(C)OCCn1c(Sc2cc3c(cc2Br)OCO3)nc2c(N)nccc21 [Compound 61, 2-(6-bromobenzo[d][1,3]dioxol-5-ylthio)-1-(2-isopropoxyethyl)-1H-imidazo[4,5-c]pyridin-4-amine] |  | 100 to 1000 |
| CC(C)OCCn1c(Sc2cc3c(cc2I)OCO3)nc2c(N)nccc21 [Compound 62, 2-(6-iodobenzo[d][1,3]dioxol-5-ylthio)-1-(2-isopropoxyethyl)-1H-imidazo[4,5-c]pyridin-4-amine] |  | 100 to 1000 |
| COc1ccc(I)c(Sc2nc3c(N)nccc3n2CCOC(C)C)c1 [Compound 64, 2-(2-iodo-5-methoxyphenylthio)-1-(2-isopropoxyethyl)-1H-imidazo[4,5-c]pyridin-4-amine] |  | 1000 to 10000 |
| CN(C)Cc1cc2c(cc1Sc1nc3c(N)nccc3n1CCNCC(C)(C)C)OCO2 [Compound 115, 2-(6-((dimethylamino)methyl)benzo[d][1,3]dioxol-5-ylthio)-1-(2-(neopentylamino)ethyl)-1H-imidazo[4,5-c]pyridin-4-amine] |  | > 10000 |

Continued, values first:

| IC50 (HSP90 [1]) [nM] | IC50 (HSP90 [2]) [nM] | Structure (SMILES) |
| --- | --- | --- |
| 100 to 1000 | < 100 | C#CCCCn1c(Sc2cc3c(cc2I)OCO3)nc2c(N)nccc21 [Compound 3, 2-(6-iodobenzo[d][1,3]dioxol-5-ylthio)-1-(pent-4-ynyl)-1H-imidazo[4,5-c]pyridin-4-amine] |
|  | 100 to 1000 | NC(=O)CCCn1c(Sc2cc3c(cc2I)OCO3)nc2c(N)nccc21 [Compound 66, 4-(4-amino-2-(6-iodobenzo[d][1,3]dioxol-5-ylthio)-1H-imidazo[4,5-c]pyridin-1-yl)butanamide] |
|  | 100 to 1000 | NC(=O)CCCCn1c(Sc2cc3c(cc2I)OCO3)nc2c(N)nccc21 [Compound 68, 5-(4-amino-2-(6-iodobenzo[d][1,3]dioxol-5-ylthio)-1H-imidazo[4,5-c]pyridin-1-yl)pentanamide] |
|  | 100 to 1000 | NC(=O)CCCCCn1c(Sc2cc3c(cc2I)OCO3)nc2c(N)nccc21 [Compound 70, 6-(4-amino-2-(6-iodobenzo[d][1,3]dioxol-5-ylthio)-1H-imidazo[4,5-c]pyridin-1-yl)hexanamide] |
|  | 100 to 1000 | CC(=O)NCCn1c(Sc2cc3c(cc2I)OCO3)nc2c(N)nccc21 [Compound 72, N-(2-(4-amino-2-(6-iodobenzo[d][1,3]dioxol-5-ylthio)-1H-imidazo[4,5-c]pyridin-1-yl)ethyl)acetamide] |
|  | 100 to 1000 | CC(=O)NCCCn1c(Sc2cc3c(cc2I)OCO3)nc2c(N)nccc21 [Compound 74, N-(3-(4-amino-2-(6-iodobenzo[d][1,3]dioxol-5-ylthio)-1H-imidazo[4,5-c]pyridin-1-yl)propyl)acetamide] |
|  | 100 to 1000 | CC(=O)NCCCCn1c(Sc2cc3c(cc2I)OCO3)nc2c(N)nccc21 [Compound 76, N-(4-(4-amino-2-(6-iodobenzo[d][1,3]dioxol-5-ylthio)-1H-imidazo[4,5-c]pyridin-1-yl)butyl)acetamide] |
